Data taken from article PMC4317638 (Emerging Microbes & Infections, 2014).
Read-outs that look alike come from different tables or passages of the source.

Key:
Ebola virus infection [1] = conditions: cited from earlier work
Ebola virus infection [2] = conditions: in vivo; cited from earlier work
in vitro = conditions: human, Cytotoxicity IC50
[3] = test system: Ebola VLP entry into HeLa cells; assay: microbe, parasite or virus in culture; assay type: cell-based, Ebola virus; conditions: for IC90: read-out: Block Ebola VLP entry IC90; for Emax: read-out: Block Ebola VLP entry Max. Inh.
[4] = read-out: Block Ebola VLP entry IC50
[5] = Zaire ebolavirus, HeLa, read-out: Block Ebola VLP entry IC50
[6] = Zaire ebolavirus, HeLa, read-out: IC50 of blocking Ebola VLP entry

| Molecule | Block of Ebola virus infection (Ebola virus infection [1]) | Efficacy in a mouse infection model (Ebola virus infection [2]) | IC50 (in vitro) | IC90 ([3]; Zaire ebolavirus, HeLa) | Emax ([3]; Zaire ebolavirus, HeLa) | IC50 (HeLa cells; human) | Block Ebola VLP entry Max. Inh. [3] | Selectivity Index [3] | IC50 [3, 4] | IC90 [3] | Cytotoxicity (HeLa cells) | IC50 [3, 5] | IC50 [3, 6] | IC50 (HeLa cells) | IC50 ([3]; read-out: IC50 of blocking Ebola VLP entry) |
| --- | --- | --- | --- | --- | --- | --- | --- | --- | --- | --- | --- | --- | --- | --- | --- |
| CCN(CC)CCOc1ccc(C(=C(Cl)c2ccccc2)c2ccccc2)cc1 [Clomiphene] | effectively block Ebola virus infection | effective in a mouse infection model | 91.4 µM | 5.34 µM | 92% |  |  |  |  |  |  |  |  |  |  |
| COc1cccc2c1C(=O)c1c(O)c3c(c(O)c1C2=O)C[C@@](O)(C(C)=O)C[C@@H]3O[C@H]1C[C@H](N)[C@H](O)[C@H](C)O1 [Daunorubicin] |  |  |  |  |  | 250 µM | 96% | 103 fold | 2.43 µM | 4.45 µM |  |  |  |  |  |
| C[C@H]1O[C@@H](O[C@H]2[C@@H](O)C[C@H](O[C@H]3[C@@H](O)C[C@H](O[C@H]4CC[C@@]5(C)[C@H](CC[C@@H]6[C@@H]5C[C@@H](O)[C@]5(C)[C@@H](C7=CC(=O)OC7)CC[C@]65O)C4)O[C@@H]3C)O[C@@H]2C)C[C@H](O)[C@@H]1O [Digoxin] |  |  | 250 µM | 3.45 µM | 68% |  |  | 327 fold |  |  | cytotoxicity at a compound concentration similar to that effective in blocking Ebola VLP entry | 0.763 µM | 0.76 µM |  |  |
| N=C(N)NN=C(/C=C/c1ccc([N+](=O)[O-])o1)/C=C/c1ccc([N+](=O)[O-])o1 [Nitrovin] |  |  |  |  |  |  | 95% |  | 4.85 µM | 7.14 µM |  |  |  | > 500 µM |  |
| CN1CCN(CC/C=C2/c3ccccc3Sc3ccc(S(=O)(=O)N(C)C)cc32)CC1 [Thiothixene] |  |  | 70.1 µM | 7.18 µM | 100% |  |  | 36 fold |  |  |  | 1.92 µM | 1.9 µM |  |  |
| CCN(CC)CCOc1ccc2c(c1)C(=O)c1cc(OCCN(CC)CC)ccc1-2 [Tilorone] |  |  | > 500 µM | 19 µM | 100% |  |  | >146 fold |  |  |  | 3.43 µM |  |  |  |
| CC[C@@]1(O)C(=O)OCc2c1cc1n(c2=O)Cc2cc3c(CN(C)C)c(O)ccc3nc2-1 [Topotecan] |  |  | > 500 µM | 10.8 µM | 107% |  |  | >130 fold |  |  |  | 3.85 µM |  |  |  |
| CN(C)CCOc1ccc(/C(=C(/CCCl)c2ccccc2)c2ccccc2)cc1 [Toremifene] | effectively block Ebola virus infection | effective in a mouse infection model | 180 µM | 3.73 µM | 98% |  |  | 316 fold |  |  |  | 0.566 µM | 0.56 µM |  | 0.55 µM |
| CN1CCN(CCCN2c3ccccc3Sc3ccc(C(F)(F)F)cc32)CC1 [Trifluoperazine] |  |  |  | 12 µM | 97% | 97 µM |  | 21 fold |  |  |  | 4.48 µM | 4.4 µM |  |  |
| CC[C@]1(O)C[C@@H]2CN(CCc3c([nH]c4ccccc34)[C@@](C(=O)OC)(c3cc4c(cc3OC)N(C)[C@H]3[C@@](O)(C(=O)OC)[C@H](OC(C)=O)[C@]5(CC)C=CCN6CC[C@]43[C@@H]65)C2)C1 [Vinblastine] |  |  | > 500 µM | 0.13 µM | 87% |  |  | >10 324 fold |  |  |  | 0.048 µM |  |  |  |
| CC[C@]1(O)C[C@H]2CN(CCc3c([nH]c4ccccc34)[C@@](C(=O)OC)(c3cc4c(cc3OC)N(C=O)[C@H]3[C@@](O)(C(=O)OC)[C@H](OC(C)=O)[C@]5(CC)C=CCN6CC[C@]43[C@@H]65)C2)C1 [Vincristine] |  |  | > 500 µM | 0.258 µM | 83% |  |  | >3554 fold |  |  |  | 0.141 µM | 0.14 µM |  |  |
| CCC1=C[C@@H]2CN(C1)Cc1c([nH]c3ccccc13)[C@@](C(=O)OC)(c1cc3c(cc1OC)N(C)[C@H]1[C@@](O)(C(=O)OC)[C@H](OC(C)=O)[C@]4(CC)C=CCN5CC[C@]31[C@@H]54)C2 [Vinorelbine/Navelbine, Vinorelbine] |  |  | > 500 µM | 0.19 µM | 90% |  |  | >7546 fold |  |  |  | 0.066 µM |  |  |  |
| Spiramycin |  |  |  |  |  |  | 92% |  |  | 11.7 µM |  |  |  | > 500 µM |  |
